Among the data in ChEMBL document CHEMBL1151225, “New neolignans that inhibit DNA polymerase beta lyase” (J Nat Prod, 2004) are IC50 values, retold here.

SMILES strings stand for the structures. Some results are limits rather than exact numbers.

The target of the assay is DNA polymerase beta (Homo sapiens, UniProt P06746). Briefly: Inhibition of DNA polymerase beta lyase activity.
By IC50 is commonly meant the concentration needed to halve the response being measured. Turning to `C=CC[C@@]12C=C(O)C(=O)[C@](O)([C@H](c3ccc4c(c3)OCO4)[C@H]1C)[C@@H]2O`, the IC50 was over 50 µM.

As for `C=CCc1c(OC)cc(OC)c2c1OCO2`, 18.6 µM corresponded to half-maximal inhibition (IC50).

For `C=CC[C@@]12C=C(O)C(=O)[C@](OC)([C@H](c3ccc4c(c3)OCO4)[C@H]1C)[C@@H]2O`, 21.6 µM corresponded to half-maximal inhibition (IC50).

As to `C=CC[C@]12C[C@@H](OC)C(=O)C(OC)=C1O[C@H](c1ccc3c(c1)OCO3)[C@H]2C`, the IC50 was determined as 12.3 µM.

Turning to `C=CCc1c(OC)cc2c(c1OC)OCO2`, it took 34.2 µM to reach half-maximal inhibition (IC50). Under `COc1c(/C=C/CO)cc2c(c1OC)OCO2` stands over 50 µM; under `COc1cc2c(c(OC)c1/C=C/CO)OCO2`, 43.5 µM; under `C=CC[C@@]12C=C(OC)C(=O)[C@](O)([C@H](c3ccc4c(c3)OCO4)[C@H]1C)[C@@H]2O`, 15.3 µM. In the case of `C=CC[C@@]12C=C(OC)C(=O)[C@](OC)([C@H](c3ccc4c(c3)OCO4)[C@H]1C)[C@@H]2O` it was over 50 µM. Under `C=CC[C@@]12C[C@H](OC)[C@@H](O)[C@@](OC)([C@@H]1O)[C@@H](c1ccc3c(c1)OCO3)[C@@H]2C` [CANELLIN A] stands 26.5 µM; under `C=CC[C@@]12CC(=O)[C@@H](O)[C@@](OC)([C@@H]1O)[C@@H](c1ccc3c(c1)OCO3)[C@@H]2C` [CANELLIN C], 32.4 µM; under `C=CCc1cc2c(c(OC)c1OC)OCO2` [DILLAPIOLE], over 50 µM.
